Source: patent US20200239473A1, “NEW DERIVATIVES OF LICOFELONE” (priority 2015, published 2020)

Assay: Metabolic stability in minipig intestinal fluid, quantification of licofelone by HPLC/UV
Format: in vitro ADME, Gottingen SPF minipig
Conditions: diluted minipig intestinal fluid; result in words
Experimental: Metabolic Stability of NSAID in Minipig Intestinal Fluid—Quantification of Licofelone
Intestinal tissue/fluid and enterocyte samples were taken from a 10 month old, female Gottingen SPF minipig. The body weight was 21 kg. The minipig was fasted for approximately 28 hours before sampling of intestinal fluid/tissues and enterocytes. On the day of sampling, the minipig was weighed and anaesthetised. The animal was killed by exsanguination before the sampling of intestinal fluid. An intestinal segment was ligated at both ends before removal. The isolated tissue was placed in isotonic saline and opened by a longitudinal cut for sampling of intestinal fluid.
The intestinal tissue from each segment was transferred into a Centrifuge Tube, immersed in 10 ml 50mM phosphate buffer, pH 6.8 and frozen at −70° C.
b) Incubation Experiments with Minipig Intestinal Fluid (without FaSSIF) […]
A set of six reference solutions (solvent: 1 vol IF and 4 vol 2% bovine serum albumin in FaSSIF pH 6.5) with licofelone concentrations between 38.0 and 0.19 μg/ml and the solvent without licofelone were analysed in duplicate. The obtained concentration/peak area data pairs were subjected to linear regression analysis and the resulting calibration curve (r^2=0.9999) was used for quantification of licofelone in incubation experiments.

Structure (SMILES)	release of licofelone compared with Examples bearing a hydroxy group or an MMF residue as R
CC1(C)Cc2c(-c3ccccc3)c(-c3ccc(Cl)cc3)c(CC(=O)OCCOCCOCCOCCOC(=O)Cc3c(-c4ccc(Cl)cc4)c(-c4ccccc4)c4n3CC(C)(C)C4)n2C1 [Reference Example 4b, [2-(4-Chloro-phenyl)-6,6-dimethyl-1-phenyl-6,7-dihydro-5H-pyrrolizin-3-yl]acetic acid 2-{2-[2-(2-{2-[2-(4-chloro-phenyl)-6,6-dimethyl-1-phenyl-6,7-dihydro-5H-pyrrolizin-3-yl]-acetoxy}-ethoxy)-ethoxy]-ethoxy}-ethyl ester]	significantly lower
CC1(C)Cc2c(-c3ccccc3)c(-c3ccc(Cl)cc3)c(CC(=O)OCCOC(=O)Cc3c(-c4ccc(Cl)cc4)c(-c4ccccc4)c4n3CC(C)(C)C4)n2C1 [Reference Example 5b, 2-[2-[2-(4-chlorophenyl)-6,6-di-methyl-1-phenyl-5,7-dihydropyrrolizin-3-yl]acetyl]oxyethyl-2-[2-(4-chloro-phenyl)-6,6-dimethyl-1-phenyl-5,7-dihydropyrrolizin-3-yl]acetate]	significantly lower
